Results reported in patent US4426524A, “Heterocyclic substituted benzyl alcohol, insecticidal ester derivatives, and intermediates” (priority 1982, dated 1984).
Read-outs that look alike come from different tables or passages of the source.

What was measured:
southern armyworm [1] = assay: Topical application, southern armyworm; format: in vivo, Spodoptera eridania; conditions: SAW; for Topical % Kill @ 5000 ng/insect: 24 hours
Experimental: (§1) Topical Application: The compounds of this invention were tested for insecticidal activity against various insect species selected from southern armyworm (Spodoptera eridania), Mexican bean beetle, (Epilachna varivestis), milkweed bug (Oncopeltus fasciatus), and cabbage looper (Tricoplusia ni) by applying to the second or third dorsal thoracic segment of each larvae a one microliter droplet containing 5 mg/mL of test compound in acetone (5000 ng/insect). The test was allowed to stand 24 hours after application and was then read to determine the percent kill.
(§2) To determine the LD50 of the compounds, the topical application test was repeated by applying various amounts of toxicant. Also included among the species tested against for this determination were tobacco budworm (Heliothis virescens), beet armyworm (Spodoptera exigua), and boll weevil (Anthonomus grandis).

milkweed bug = assay: Topical application, milkweed bug; format: in vivo, Oncopeltus fasciatus; conditions: MWB; for Topical % Kill @ 5000 ng/insect: 24 hours
Experimental: as §1, §2

Mexican bean beetle [2] = assay: Topical application, Mexican bean beetle; format: in vivo, Epilachna varivestis; conditions: MBB; for Topical % Kill @ 5000 ng/insect: 24 hours
Experimental: as §1, §2

southern armyworm [3] = assay: Foliar application, southern armyworm; format: in vivo; conditions: Spodoptera eridania, read-out: Foliar % Kill (ppm)
Experimental: (§3) Foliar Application: The activity of some of the compounds of the invention against various test species selected from pea aphid (Acyrthosiphon pisum), twospotted spider mite (Tetranychus urticae), southern armyworm (Spodoptera eridania), Mexican bean beetle (Epilachna varivestis), and cabbage looper (Tricoplusia ni) was determined by foliar application of the test compound. The test materials were formulated as aqueous solutions containing 10% acetone and 0.25% acetylphenoxypolyethoxyethanol. Activity against pea aphid was determined on English fava bean plants the leaves of which were sprayed to runoff with various concentrations of test solution prior to infestation with adult aphids. Activity against twospotted spider mite was evaluated on pinto bean plants whose leaves were sprayed to runoff with various concentrations of test solution after infestation with adult mites. Activity against the remaining species was evaluated on pinto bean plants whose leaves were sprayed to runoff with various concentrations of test solution before infestation with the appropriate immature insects. Mortality was read approximately 48 hours after treatment.

Mexican bean beetle [4] = assay: Foliar application, Mexican bean beetle; format: in vivo; conditions: Epilachna varivestis, read-out: Foliar % Kill (ppm)
Experimental: as §3

pea aphid = assay: Foliar application, pea aphid; format: in vivo; conditions: Acyrthosiphon pisum, read-out: Foliar % Kill (ppm)
Experimental: as §3

twospotted spider mite = assay: Foliar application, twospotted spider mite; format: in vivo; conditions: Tetranychus urticae, read-out: Foliar % Kill (ppm)
Experimental: as §3

cabbage looper = assay: Topical application, cabbage looper; format: in vivo, Tricoplusia ni; conditions: CL; for Topical % Kill @ 5000 ng/insect: 24 hours
Experimental: as §1, §2

tobacco budworm = assay: Topical application, tobacco budworm; format: in vivo, Heliothis virescens; conditions: TBW
Experimental: as §1, §2

| Structure (SMILES) | Topical LD50 (southern armyworm [1]) | Topical % Kill @ 5000 ng/insect (southern armyworm [1]) | Topical % Kill @ 5000 ng/insect (milkweed bug) | Topical LD50 (Mexican bean beetle [2]) | Topical % Kill @ 5000 ng/insect (Mexican bean beetle [2]) | Topical LD50 (milkweed bug) | mortality at 500 ppm (southern armyworm [3]; SAW, foliar, 48 hours) | mortality at 64 ppm (Mexican bean beetle [4]; MBB, foliar, 48 hours) | mortality at 500 ppm (pea aphid; PA, foliar, 48 hours) | mortality at 500 ppm (twospotted spider mite; TSM, foliar, 48 hours) | Topical LD50 (cabbage looper) | mortality at 16 ppm (twospotted spider mite; TSM, foliar, 48 hours) | also measured |
| --- | --- | --- | --- | --- | --- | --- | --- | --- | --- | --- | --- | --- | --- |
| CC1(C)[C@H](C=C(Cl)C(F)(F)F)[C@@H]1C(=O)OCc1cccc(-c2ccco2)c1 (relative stereo) [k, [3-(2-furanyl)phenyl]methyl cis-3-(2-chloro-3,3,3-trifluoro-1-propenyl)-2,2-dimethylcyclopropanecarboxylate] | 366 ng/insect | 100% | 40% | 510 ng/insect | 90% |  |  |  |  |  |  |  | mortality at 512 ppm (southern armyworm [3]; SAW, foliar, 512 ppm, 48 hours): 100%; mortality at 512 ppm (Mexican bean beetle [4]; MBB, foliar, 512 ppm, 48 hours): 100%; mortality at 512 ppm (pea aphid; PA, foliar, 512 ppm, 48 hours): 100%; mortality at 64 ppm (twospotted spider mite; TSM, foliar, 64 ppm, 48 hours): 0% |
| Cc1c(COC(=O)[C@H]2[C@@H](C=C(Cl)C(F)(F)F)C2(C)C)cccc1-c1cnccn1 (relative stereo) [p, [2-methyl-3-(pyrazinyl)phenyl]methyl cis-3-(2-chloro-3,3,3-trifluoro-1-propenyl)-2,2-dimethylcyclopropanecarboxylate] | 1948 ng/insect | 90% | 100% | 93 ng/insect | 100% | 1050 ng/insect | 100% | 80% | 100% | 100% |  |  |  |
| Cc1c(COC(=O)C2C(C=C(Cl)Cl)C2(C)C)cccc1-c1ccco1 (mixture of isomers) [o, [3-(2-furanyl)-2-methylphenyl]methyl cis,trans-3-(2,2-dichloroethenyl)-2,2-dimethylcyclopropanecarboxylate] | 146 ng/insect | 100% | 100% | 86 ng/insect | 100% | 450 ng/insect | 100% | 45% | 100% |  | 536 ng/insect | 0% | Topical LD50 (tobacco budworm): 45 ng/insect |
| CC1(C)[C@H](C=C(Cl)Cl)[C@@H]1C(=O)OCc1cccc(-c2ccco2)c1 (relative stereo) [j, [3-(2-furanyl)phenyl]methyl cis-3-(2,2-dichloroethenyl)-2,2-dimethylcyclopropanecarboxylate] | 377 ng/insect | 100% | 0% |  | 30% |  |  |  | 40% | 0% |  |  | mortality at 512 ppm (southern armyworm [3]; SAW, foliar, 512 ppm, 48 hours): 100%; mortality at 512 ppm (Mexican bean beetle [4]; MBB, foliar, 512 ppm, 48 hours): 50% |
| Cc1c(COC(=O)[C@H]2[C@@H](C=C(Cl)Cl)C2(C)C)cccc1-c1ccco1 (relative stereo) [n, [3-(2-furanyl)-2-methylphenyl]methyl cis-3-(2,2-dichloroethenyl)-2,2-dimethylcyclopropanecarboxylate] | 73 ng/insect |  | 100% | 72 ng/insect | 100% | 1140 ng/insect | 100% | 40% |  |  | 341 ng/insect | 0% | Topical LD50 (tobacco budworm): 92 ng/insect; mortality at 64 ppm (pea aphid; PA, foliar, 64 ppm, 48 hours): 100% |
| CC1(C)C(C=C(Cl)Cl)C1C(=O)OCc1cccc(-c2cccs2)c1 (mixture of isomers) [a, 3-(2-thienyl)phenylmethyl cis,trans-3-(2,2-dichloroethenyl)-2,2-dimethylcyclopropanecarboxylate] | 148 ng/insect | 100% |  |  |  |  |  |  |  |  | 3649 ng/insect |  | Topical % Kill @ 5000 ng/insect (cabbage looper): 100% |
| Cc1c(COC(=O)[C@H]2[C@@H](C=C(Cl)C(F)(F)F)C2(C)C)cccc1-c1ccccn1 (relative stereo) [s, [2-methyl-3-(pyridin-2-yl)phenyl]methyl cis-3-(2-chloro-3,3,3-trifluoro-1-propenyl)-2,2-dimethylcyclopropanecarboxylate] | 60 ng/insect | 100% | 100% | 38 ng/insect | 100% | 607 ng/insect | 100% | 60% | 100% | 80% |  |  |  |
| CC1(C)[C@H](C=C(Cl)Cl)[C@@H]1C(=O)OCc1cccc(-c2cccs2)c1 (relative stereo) [b, 3-(2-thienyl)phenylmethyl cis-3-(2,2-dichloroethenyl)-2,2-dimethylcyclopropanecarboxylate] | 54 ng/insect |  |  | 471 ng/insect |  | 1715 ng/insect |  |  |  | 0% | 1275 ng/insect |  | mortality at 512 ppm (southern armyworm [3]; SAW, foliar, 512 ppm, 48 hours): 95%; mortality at 512 ppm (Mexican bean beetle [4]; MBB, foliar, 512 ppm, 48 hours): 80%; mortality at 512 ppm (pea aphid; PA, foliar, 512 ppm, 48 hours): 80% |
| Cc1c(COC(=O)[C@H]2[C@@H](C=C(Cl)C(F)(F)F)C2(C)C)cccc1-c1ccco1 (relative stereo) [m, [3-(2-furanyl)-2-methylphenyl]methyl cis-3-(2-chloro-3,3,3-trifluoro-1-propenyl)-2,2-dimethylcyclopropanecarboxylate] | 56 ng/insect | 100% | 100% | 43 ng/insect | 100% | 286 ng/insect | 100% | 75% | 100% |  | 149 ng/insect | 0% | Topical LD50 (tobacco budworm): 46 ng/insect |
| CC1(C)[C@H](C(=O)OCc2cccc(-c3ccc(Br)o3)c2)[C@@H]1C=C(Cl)Cl (relative stereo) [l, [3-(5-bromofuranyl)phenyl]methyl cis-3-(2,2-dichloroethenyl)-2,2-dimethylcyclopropanecarboxylate] | 1819 ng/insect | 100% | 0% |  | 35% |  |  |  |  |  |  |  | mortality at 512 ppm (southern armyworm [3]; 48 h): 100%; mortality at 512 ppm (Mexican bean beetle [4]; 48 h): 80%; mortality at 512 ppm (pea aphid; 48 h): 75%; mortality at 64 ppm (twospotted spider mite; 48 h): 0% |
| Cc1c(COC(=O)[C@@H]2[C@H](C=C(Cl)Cl)C2(C)C)cccc1-c1cnccn1 (relative stereo) [q, [2-methyl-3-(pyrazinyl)phenyl]methyl cis-(2,2-dichloroethenyl)-2,2-dimethylcyclopropanecarboxylate] | 2387 ng/insect | 90% | 90% | 269 ng/insect | 90% | 4915 ng/insect | 85% | 55% | 100% |  |  | 0% |  |
| Cc1c(COC(=O)[C@H]2[C@@H](C=C(Cl)C(F)(F)F)C2(C)C)cccc1-c1cccnc1 (relative stereo) [r, [2-methyl-3-(pyridin-3-yl)phenyl]methyl cis-3-(2-chloro-3,3,3-trifluoro-1-propenyl)-2,2-dimethylcyclopropanecarboxylate] | 2626 ng/insect | 100% | 100% | 863 ng/insect |  | 1047 ng/insect | 100% | 25% | 95% |  |  | 0% |  |
| CC1(C)[C@@H](C=C(Cl)Cl)[C@@H]1C(=O)OCc1cccc(-c2cccs2)c1 (relative stereo) [c, 3-(2-thienyl)phenylmethyl trans-3-(2,2-dichloroethenyl)-2,2-dimethylcyclopropanecarboxylate] | 421 ng/insect | 100% |  |  |  |  |  |  |  |  |  |  | Topical % Kill @ 5000 ng/insect (cabbage looper): 0% |
